These results are taken from patent publication US5741476A, “Polyhydric phenol compounds” (Mallinckrodt Medical, Inc., priority 1992, dated 1998).

Series [1] can be described thus: in vivo distribution in rats. On the procedure:
The in vivo distribution in rats is determined by injecting approx. 10 μCi of the compound to be evaluated into the tail vein of the test animals. The test animals are sacrificed at appropriate time intervals after injection and the radioactivity of the organs of interest is measured by gamma scintillation counting.

The subject of series [2] is erythrocytes. As to the kind of experiment: binding of 3-125I-phloretin to erythrocytes. Set-up: species or system human. On the procedure: (§1) In order to be able to compare the binding to cancer cells with the binding to normal cells, the following experiments are carried out. Binding to certain cancer cells, viz. YAK1 mice lymphoma cells (10^6 cells/ml incubation medium) is compared with binding to erythrocytes of a young healthy person (10^6 cells/ml incubation medium), because erythocytes are typical reference cells for glucose transport studies.
(§2) The incubation media are respectively:
(§3) RPMI-buffer pH=8; 11 mM in glucose, and
(§4) RPMI buffer/0.9% NaCl: 1/1.
(§5) Each 1 ml essay contains 5% of foetal calf serum and is spiked (50 μl) with 3-^125 I-phloretin (initial activity is measured).
(§6) After 15 min incubation at 37° C., the suspension is centrifuged and the precipitate is resuspended with 1 ml cold buffer which is discarded after a second centrifugation. The final radioactive precipitate is suspended in 1 ml water and measured. The bound radioactivity is related to the initial activity.
Saturation binding of 3-^125 I-phloretin to 5.10^6 erythrocytes is performed in RPMI-buffer and Tris-buffer of pH 8. The binding experiments are performed at pH 8, because this is the pH of the RPMI buffer needed for optimum YAK1 cells growth. Incubation for 15 min at 37° C. Inhibition is studied by pre-incubation (15 min, 37° C.) of the erythrocytes in buffer containing 2.10^-4 M 3-Br-phloretin. After centrifugation, the Br-phloretin-containing solution is discarded and the precipitate washed with ice-cooled buffer. After a second centrifugation, the supernatant is discarded and the cells are resuspended in buffer containing 3^125 I-phloretin. After incubation for 15 min at 37° C., the same above procedure is applied. Phloretin is a weak acid (pK is approx. 7.3); only the uncharged (non-dissociated) form inhibits red cell glucose transport (Jennings et al., see above). Therefore the values mentioned hereinafter are corrected for dissociation.
When starting from small amounts (0.1×10^-10 M) N.C.A. 3-^125 I-phloretin up to higher concentrations and C.A. conditions (3-Br-phloretin used as analogue), two types of binding are observed: […]

The test system of series [3] is YAK1 mice lymphoma cells. As to the kind of experiment: binding of 3-125I-phloretin to YAK1 lymphoma cells. On the procedure:
as §1, §2, §3, §4, §5, §6

In series [4] the test system is hexokinase. As to the kind of experiment: hexokinase-model: inhibition of hexokinase-catalysed 6-phosphorilation of glucose. Format: biochemical. An excerpt: In vitro evaluation of 3-halo-phloretin compounds using the "hexokinase-model"
The "hexokinase-model" is used as a model system for the glucose-transport proteins, which play a paramount role in the glucose metabolism.
The mechanism of the glucose--glucosetransportprotein interaction and following transport through the cell membrane of glucose, as described in literature (Scientific American, January 1992, p. 32-39; Biochemistry, Vol. 28, No. 20, 1989, p. 8221-8227), and the induced-fit model described for glucose 6-phosphorilation by hexokinase (Cell Biology, 1989) show a certain analogy which let to assume, that the interaction between a potential glucose transport inhibitor with hexokinase can be a valuable in vitro model if this inhibition is competitive for glucose.
The substitution of halogen such as a bromine or iodine atom on the 3-position of the 4-hydroxyl-phenylpropion part of phloretin increases the inhibition potency as shown as follows:
Inhibition of hexokinase catalyses 6-phosphorilation of glucose by deoxyglucose, phloretin and 3-bromo-phloretin.

A short description of series [5]: binding in human whole blood (RB/plasma distribution, reversibility). Format: in vitro ADME. As to conditions: for blood plasma ratio at 0.25 h / blood plasma ratio: human; for blood plasma ratio at 0.25 h: 37° C., 15 min, read-out: RB/plasma ratio after re-equilibration. On the procedure:
In vitro experiments: binding in human whole blood
Jennings et al. [J. Gen. Phys., 1967, 67, 381] have reported the binding of phloretin to whole red blood cells. Their results let to assume that phloretin should enter the erythrocytes and bind to haemoglobine. This should mean that a phloretin-based radiotracer should not be suitable for in vivo use. Therefore the reversibility of the binding is checked. For this purpose 3-^123 I-phloretin is added to whole heparinised blood. This is centrifuged, yielding serum S-*I and red blood portion RB-*I. S-*I and non-radioactive RB (1/1) and respectively non-radioactive S and RB-*I (1/1) are incubated at 37° C. for 15 min and centrifuged. The radioactivity of all the weighed aliquots is measured in a well NaI(T1) detector.

For series [6] the following is noted: weak acid; cited from earlier work.

The structures appear in SMILES notation. Where two headings read alike, the source gives them in different places.

For `O=C(CCc1ccc(O)c(I)c1)c1c(O)cc(O)cc1O` [3-*I-phloretin], the “saturability of uptake in heart and muscle” value in series [1] (decreased uptake in the presence of Br-phloretin) is given as “apparently saturable”. In series [1] (i.v. tail vein, N.C.A. and C.A.), the “uptake in the lungs (L/B)” value was “high uptake in the lungs”.

For `O=C(CCc1ccc(O)c(Br)c1)c1c(O)cc(O)cc1O` [3-Br--phloretin, 3-bromophloretin], the “bound/free value of 3-125I-phloretin” value in series [2] (erythrocytes pre-incubated with 2×10^-4 M 3-Br-phloretin, blank 0.193, average of 5 experiments) amounted to 0.081. Further, in series [2] (pre-incubation with 2×10^-4 M 3-Br-phloretin, compared with blank), the “inhibition of 3-125I-phloretin binding” value was 58%. In series [3] (co-incubation of 3-Br-phloretin, YAK1 cells, 15 min), the “decreased binding of 3-125I-phloretin” value stood at 30%.

Take `O=C(CCc1ccc(O)c(I)c1)c1c(O)cc(O)cc1O` [3-I--phloretin, 3-I-phloretin]: the “potency as hexokinase inhibitor relative to the original phloretin” value in series [4] (versus phloretin) is reported as “approx. 2 times”.

Turning to `O=C(CCc1ccc(O)c([125I])c1)c1c(O)cc(O)cc1O` [3-^125 I-phloretin], the “reversibility of binding to plasma-proteins and RB” value in series [5] is “bound reversibly”. In addition, the blood plasma ratio at 0.25 h was 0.15 in series [5] (N.C.A. radioactivity bound to RB, re-equilibrated with non-radioactive plasma) and 0.13 in series [5] (N.C.A. radioactivity bound to plasma, re-equilibrated with non-radioactive RB). For the same compound, the values for the blood plasma ratio in series [5] (in the presence of non-radioactive Br-phloretin or phloretin) and in series [5] (non-carrier-added (N.C.A.) conditions) were 0.32 and 0.215, respectively. Further, the bound/free ratio in series [2] (N.C.A., 10^6 erythrocytes, 15 min 37° C., average of at least 20 experiments) turned out to be 0.021; in series [3] (N.C.A., 10^6 YAK1 cells, 15 min 37° C., average of at least 20 experiments) it was 0.048. Further, the “influence of glucose on binding” value in series [2] (presence of 3.10^-2 -5.10^-3 M glucose) is given as “hardly influences the binding”. In addition, in series [2] (saturation binding 0.1 to 1.2 10^-10 M, Scatchard plot, pH 8), the Bmax is 4.7×10^-15 mol/10^6 erythrocytee. Besides, in series [2] (saturation binding 0.1 to 1.2 10^-10 M, Scatchard plot, pH 8, 15 min 37° C., corrected for dissociation, read-out: apparent Kd), the Kd amounted to 0.08 nM. Moreover, the “increase of uptake in YAK1 lymphoma cancer cells as compared to erythrocytes” value in series [3] (YAK1 versus erythrocytes) was above 2 factor.

On to `O=C(CCc1ccc(O)cc1)c1c(O)cc(O)cc1O` [phloretin, reference compound], for which the “type of inhibition of hexokinase activity” value in series [4] (Lineweaver-Burck plots, versus glucose) is “competitive”. The pK entry in series [6] was “approx. 7.3”.
